This is an account of results in US10456441B2, “Augmenting the immune response by promoting cell death of immune cells” (The University of Vermont and State Agricultural College, priority 2014, dated 2019).

Where a SMILES comes first, the peptide text is derived from it. The star is where a group is joined. Cbz = O=C(OCc1ccccc1)*; CH2F = FC*

For experiment [1], the system named is human synovial Vδ1 clone Bb15. The experiment can be described thus: Human synovial γδ T cell clone Bb15 cultured with human DC and B. burgdorferi. The experiment is classed as cell-based. Particulars: Borrelia plus zVAD-treated (50 μM) DC cultured with GM-CSF alone. As to the method:
γδ T cell clones were derived from synovial fluid T cells stimulated with B. burgdorferi sonicate (10 μg/ml) and then cloned at limiting dilution as previously described (8). All clones are of the Vδ1 subset by antibody staining and DNA sequencing (8). Clones were restimulated every 10-14 days in the presence of irradiated peripheral blood lymphocytes (3×10^5/well), human recombinant IL-2 (10 U/ml), and 10 μg/ml of B. burgdorferi.
Human monocytes were obtained as […] cells by magnetic bead purification (Miltenyi Biotech, Auburn, Calif.) from peripheral blood of healthy volunteers. Myeloid DC were prepared by culture of monocytes in AIM V media plus 10% fetal calf serum (HyClone) with 800 U/ml of granulocyte-macrophage colony-stimulating factor (GM-CSF), (BioLegend, San Diego, Calif.) without or with 500 U/ml IL-4 (BioLegend).

Experiment [2] has as its system CD4 OT-II T cells. Description: OT-II αβ T cell cultures with DC and OVAp. The experiment is classed as cell-based, mice. To be noted: OVAp + DC treated with zVAD (50 μM). As to the method: C57BL/6 OT-II mice contain CD4^+ T cells that respond to ovalbumin peptide (OVAp) 323-339 in the context of I-A^b (27). OT-II T cells were cultured with C57BL/6 DC at a 1:1 ratio in the presence of OVAp (10 μg/ml) with or without zVAD (50 μM). Supernatants were collected after 20 h and analyzed for production of IFN-γ and IL-17 by Bio-Plex.

The conditions of experiment [3]: animal models; cited from earlier work.
Experiment [4] concerns γδ T cells. Description: Mixed cultures of γδ T cells and BMDC: γδ T cell activation (IL-17, IFN-γ, CD25). The experiment is classed as cell-based, mice. As to the method:
Cells were washed three times and then rocked with goat anti-rat conjugated magnetic beads at a 10:1 ratio of beads to cell at 4° C. for 45 min. Magnetic depletion was used to remove bead-bound cells. […] After 2 days, cells were removed from anti-TCR-γδ stimulation, supplied with fresh medium plus IL-2, and returned to culture at a density of 0.3×10^6 cells/ml. Cells were counted daily and supplied with fresh media containing 50 units/ml IL-2. […] In addition, in some experiments freshly isolated splenic γδ T cells were prepared using anti-γδ-coated magnetic beads (Miltenyi Biotec) and magnet purification.
The preparation of bone marrow-derived dendritic cells (BMDC) was done according to the method of Lutz et al. (26) using GM-CSF ([…] PeproTech, Rocky Hill N.J.) or GM-CSF plus IL-4 (10 μg/ml, PeproTech). Cells were used on day 7.
Day 7 γδ T cells and BMDC were cultured either individually or together at a 1:1 ratio (10^6 cells/ml each). To some cultures the following reagents were added: a sonicate of Borrelia burgdorferi (10 μg/ml), zVAD-fmk (MP Biomedical, Santa Ana Calif.) at the doses indicated, necrostatin (50 μM, R&D Systems, Minneapolis, Minn.), anti-TNF-α (10 μg/ml, Calbiochem, Darnstadt, Germany),, anti-IL-1 Receptor antagonist, Anakinra (200 ng/ml, Amgen, Thousand Oaks, Calif.), anti-IL-12 (10 μg/ml, BioLegend San Diego, Calif.), anti-IL-18 (10 μg/ml, MBL, Woburn Mass.), or rat IgG (10 μg/ml Jackson Immunoresearch, West Grove Pa.). Transwell assays were performed using 1×10^6 γδ T cells in 1 ml of complete medium+IL-2 placed in the lower chamber, with 5×10^5 DC in 100 μl placed in the upper chamber. […]
Cytokine levels of IFN-γ, IL-1β, IL-12p40, IL-12p70, IL-17, and TNF-α were detected using the Bio-Plex, MilliPlex, or Luminex immunoassay (Bio-Rad; Millipore-EMD; R&D Systems, Minneapolis, Minn.) according to the manufacturer's protocol. Briefly, samples were run undiluted or diluted 1:10 in RPMI complete media. 50 μl of the magnetic bead working solution was added to each well, then 50 μl of appropriate samples or standards were then added to wells and incubated at room temperature for 30-120 min at 800 rpm on an IKA MS 3 digital shaker. After three washes with 100 μl Bio-Plex wash buffer, incubation with 25 μl of detection antibody solution was done at room temperature for 30-60 min on the shaker. Following another set of three washes, 50 μl of streptavidin-phycoerythrin (PE) in assay buffer was added to each well and incubated as described for the previous step. After an additional three washes, 125 μl of assay buffer was added. Sample data was analyzed with Bio-Plex Manager software.
The following monoclonal antibodies to murine cell surface molecules were purchased from BioLegend: PE-conjugated anti-CD25, APC-conjugated anti-TCR-γδ, and TNF-α neutralizing antibody. Rat IgG was purchased from Jackson Immunoresearch (West Grove, Pa.). For direct staining, single cell suspensions (1×10^6 total cells per staining condition) were washed with cold (4° C.) PBS containing 1% (w/v) BSA fraction V (Sigma) (PBS/1% BSA), incubated with unconjugated rat IgG (50 μg/ml) for 15 min at 4° C., washed again, and then incubated with the appropriate antibodies in PBS/1% BSA. After washing, the cells were fixed with freshly made 1% (v/v) methanol-free formaldehyde (Ted Pella Inc., Redding, Calif.) in PBS/1% BSA.

[5] abbreviates: cultured γδ T cells + zVAD-treated BMDC, presence of B. burgdorferi, zVAD 50 μM, 20 h.
[6] abbreviates: freshly isolated splenic γδ T cells + zVAD-treated DC + Borrelia.
Where [7] appears, read: freshly isolated splenic γδ T cells + zVAD-treated DC, absence of Borrelia.
Where [8] appears, read: zVAD-treated BMDC, absence of Borrelia.

Regarding `CC(C)[C@H](NC(=O)OCc1ccccc1)C(=O)N[C@@H](C)C(=O)N[C@@H](CC(=O)O)C(=O)CF` [zVAD, N-benzyloxycarbonyl-Val-Ala-Asp-fluoromethyl ketone] (Cbz-Val-Ala-Asp-CH2F), the “IFN-γ production by clone Bb15” value in experiment [1] is “increased IFN-γ production”. In experiment [2], the “production of IFN-γ by OT-II T cells” value is on record as “considerably augmented” and the “production of IL-17 by OT-II T cells” value was “considerably augmented”. The “reducing cell death after ischemia in multiple tissues” value in experiment [3] was “highly effective”. In experiment [4] (setting [5]), the “expression of surface CD25 on γδ T cells” value was “increased expression”, the “production of IFN-γ by γδ T cells” value was “augmented production” and the “production of IL-17 by γδ T cells” value was “augmented production”. In experiment [4] (setting [6]), the “production of IFN-γ by fresh γδ T cells” value is “greatly augmented production” and the “production of IL-17 by fresh γδ T cells” value was “greatly augmented production”. Besides, in experiment [4] (setting [7]), the “production of IFN-γ by fresh γδ T cells” value is reported as “occurred even in the absence of Borrelia” and the “production of IL-17 by fresh γδ T cells” value is given as “occurred even in the absence of Borrelia”. The “activation of γδ T cells in transwell assay” value in experiment [4] (no cell contact, BMDC+Borrelia+zVAD in upper chamber) was “partial activation”. The “activation of γδ T cells by supernatants alone” value in experiment [4] (supernatants from cultures with BMDC+Borrelia+zVAD, no added BMDC or Borrelia) is recorded as “could augment activation”. For the same compound, in experiment [4] (setting [8]), the “production of IFNγ by γδ T cells” value is given as “some production” and the “production of IL-17 by γδ T cells” value is recorded as “some production”.
